# Patent US7582656B2, “Guanidine derivatives and therapeutic uses thereof” (Merck Patent Gesellschaft, priority 2004, dated 2009)
# What was measured:
# [1] = system: stably transfected cell line; experiment: neutral red cellular toxicity check of the cultures; type: cell-based; settings: neutral red 3 hours at 37° C., read at 540 nm
# Protocol: On another batch of plates not treated with Steady Glo, the state of the cultures is checked by microscope. The culture medium is removed and 100 μl of medium comprising neutral red are added for 3 hours at 37° C.
# The medium is then removed and replaced for one minute with 100 μl of formaldehyde-calcium (10 ml of 37% formaldehyde+calcium chloride dihydrate 10 g qs 1 L).
# The plate is emptied and 100 μl of acetic acid-ethanol mixture (10 ml of glacial acetic acid+500 ml of absolute ethanol qs 1 L) are added to each well for 15 minutes with stirring.
# The plates are then read at 540 nm. The stronger the coloration, […].
# human CETP promoter = experiment: luciferase reporter under the control of the human CETP promoter, inhibition of CETP expression; type: cell-based; settings: final concentration of 15 μM, incubated overnight, Steady Glo luciferase read by luminometer
# Protocol: The stably transfected cell line (luciferase under the control of the human CETP promoter) is maintained in the growth medium (DMEM/Hepes, F12, Glutamax, FBS and geneticin) incubated at 37° C., 95% humidity and 5% CO2 to the point of confluence. The cells are then rinsed with PBS and detached with a trypsin/EDTA mixture. The medium is changed every 2 to 3 days.
# The resuspended cells are diluted and counted, and then distributed in microplate (96) wells.
# About 20 000 cells per well are distributed and incubated overnight at 37° C. with 5% CO2.
# The compounds of the present invention are diluted to a final concentration of 15 μM and distributed in the plates containing the cells.
# The plates are incubated overnight at 37° C. with 5% CO2.
# The medium covering the cells is drawn off and 100 μl of Steady Glo luciferase (DMEM without phenol red/Steady Glo, V/V) are added to the cells.
# The plates are sealed with a film and left in the dark for about 20 minutes at room temperature.
# The plates are then read using a luminometer (1 sec/well).
# The inhibition of CETP expression by the products is expressed as a percentage of the control: […]
SMILES,cellular toxicity [1],activity expressed as a percentage of the control (human CETP promoter) [%]
"CC(C)CCN=C(NCC(C)(C)CN)Nc1ccc(OCc2ccccc2)cc1 [Example 5, N-(3-Amino-2,2-dimethylpropyl)-N′-(4-benzyloxyphenyl)-N″-(3-methylbutyl)-guanidine]",No cellular toxicity is detected,46
"COCCOc1ccc(N=C(NCCCN)N2CCC(C)CC2)cc1 [Example 31, N-(3-Aminopropyl)-N′-[4-(2-methoxyethoxy)phenyl]-4-methylpiperidine-1-carboxamidine]",No cellular toxicity is detected,30
"CCC1CCCCN1C(=Nc1ccc(OCc2ccc(C(C)(C)C)cc2)cc1)NCCCN (centres unmarked) [Example 61, N-(3-Aminopropyl)-N′-[4-(4-tert-butylbenzyloxy)phenyl]-2-ethylpiperidine-1-carboxamidine]",No cellular toxicity is detected,33
"NCCCNC(=Nc1ccc(OCCCC(F)(F)F)cc1)N1CCC(Cc2ccccc2)CC1 [Example 95, N-(3-Aminopropyl)-4-benzyl-N′-[4-(4,4,4-trifluorobutoxy)phenyl]piperidine-1-carboxamidine]",No cellular toxicity is detected,16
